Laboratory results reported in patent US20160238590A1, “COMPOSITIONS AND METHODS RELATED TO OAT SENSITIVITY” (IMMUSANT, INC., priority 2013, published 2016).
Where no end group is shown, it is not given here. [ ]: non-standard residue; d: D form. pGlu = O=C1CC[C@@H](C(=O)O)N1

Legend:
Test in all cases: IFN-γ ELISpot with T cell clone
Type in all cases: cell-based, human
Patient 14 TCC-01 = conditions: TCC Patient 14 TCC-01, peptide 50 μg/mL
Protocol: (§1) Peripheral blood mononuclear cells (PBMC) were isolated from heparinized whole blood using Ficoll-Paque™ Plus density-gradient centrifugation (GE Healthcare). IFN-γ ELISpot (Mabtech) was set up as previously described^8.
(§2) Isolation of TCC from CD patients was carried out as previously described^8. Briefly, CFSE-labeled PBMC were incubated with antigen for 7 days in IMDM supplemented with 5% heat-inactivated pooled human serum (PHS), 2 mM GlutaMAX™, 100 μM MEM non-essential amino acids (both from Gibco, Invitrogen), and 50 μM 2-mercaptoethanol (Sigma). Proliferated cells were single-cell sorted into 96-well plates containing IL-2, IL-4, anti-CD3 mAb, irradiated feeder cells (allogeneic PBMC and JY-EBV). TCC were expanded and maintained in IL-2 and IL-4 and tested for specificity by ELISpot with irradiated HLA-matched PBMC as antigen-presenting cells. Expanded clones were tested for HLA-DQ restriction, TCR Vbeta usage, and with lysine scans to work out minimal epitopes. See Table 1 below for TCC and epitope information.

Patient 9 TCC-01 = conditions: TCC Patient 9 TCC-01, peptide 50 μg/mL
Protocol: as §1, §2

Patient 9 TCC-02 = conditions: TCC Patient 9 TCC-02, peptide 50 μg/mL
Protocol: as §1, §2

Patient 10 TCC-01 = conditions: TCC Patient 10 TCC-01, peptide 50 μg/mL
Protocol: as §1, §2

Patient 2 TCC-01 = test system: Patient 2 TCC-01
Protocol: as §1, §2

Patient 6 TCC-01 = test system: Patient 6 TCC-01
Protocol: as §1, §2

Patient 8 TCC-01 = conditions: TCC Patient 8 TCC-01, peptide 25 μg/mL
Protocol: as §1, §2

Patient 2 TCC-03 = conditions: TCC Patient 2 TCC-03, peptide 25 μg/mL
Protocol: as §1, §2

Patient 2 TCC-02 = conditions: TCC Patient 2 TCC-02, peptide 25 μg/mL
Protocol: as §1, §2

[1] = TCC Patient 2 TCC-01, peptide 50 μg/mL
[2] = TCC Patient 6 TCC-01, peptide 50 μg/mL
[3] = TCC Patient 2 TCC-01, peptide 25 μg/mL
[4] = TCC Patient 6 TCC-01, peptide 25 μg/mL

| Sequence | IFN-γ ELISpot response (raw SFU) (Patient 14 TCC-01) [SFU] | IFN-γ ELISpot response (raw SFU) (Patient 9 TCC-01) [SFU] | IFN-γ ELISpot response (raw SFU) (Patient 9 TCC-02) [SFU] | IFN-γ ELISpot response (raw SFU) (Patient 10 TCC-01) [SFU] | IFN-γ ELISpot response (raw SFU) (Patient 2 TCC-01; [1]) [SFU] | IFN-γ ELISpot response (raw SFU) (Patient 6 TCC-01; [2]) [SFU] | further results |
| --- | --- | --- | --- | --- | --- | --- | --- |
| LQPFPQPELPYPQPQ [reference compound] | 22 | 287 | 240 | 39 | 0 | 2 | significant SFU as a percentage of maximal peptide SFU (Patient 9 TCC-01): *** (***: >70%); significant SFU as a percentage of maximal peptide SFU (Patient 9 TCC-02): *** (***: >70%) |
| PEQPFPEQPQPYPQQP (not fully specified (C-terminus)) | 66 | 0 | 0 | 3 | 202 | 73 | IFN-γ ELISpot response (SFU) (Patient 8 TCC-01): 145 SFU; significant SFU as a percentage of maximal peptide SFU (Patient 8 TCC-01): *** (***: >70%); significant SFU as a percentage of maximal peptide SFU (Patient 14 TCC-01): *** (***: >70%); IFN-γ ELISpot response (SFU) (Patient 2 TCC-03): 159 SFU; significant SFU as a percentage of maximal peptide SFU (Patient 2 TCC-03): *** (***: >70%); IFN-γ ELISpot response (SFU) (Patient 2 TCC-02): 5 SFU; IFN-γ ELISpot response (SFU) (Patient 2 TCC-01; [3]): 151 SFU; significant SFU as a percentage of maximal peptide SFU (Patient 2 TCC-01; [3]): ** (**: 40-70%); significant SFU as a percentage of maximal peptide SFU (Patient 2 TCC-01; [1]): ** (**: 40-70%); IFN-γ ELISpot response (SFU) (Patient 6 TCC-01; [4]): 59 SFU; significant SFU as a percentage of maximal peptide SFU (Patient 6 TCC-01; [4]): ** (**: 40-70%); significant SFU as a percentage of maximal peptide SFU (Patient 6 TCC-01; [2]): *** (***: >70%) |
| QPFPQPEQPFPWQP ([pGlu]PFPQPEQPFPWQP-NH2; SMILES NC(=O)CC[C@H](NC(=O)[C@H](Cc1c[nH]c2ccccc12)NC(=O)[C@@H]1CCCN1C(=O)[C@H](Cc1ccccc1)NC(=O)[C@@H]1CCCN1C(=O)[C@H](CCC(N)=O)NC(=O)[C@H](CCC(=O)O)NC(=O)[C@@H]1CCCN1C(=O)[C@H](CCC(N)=O)NC(=O)[C@@H]1CCCN1C(=O)[C@H](Cc1ccccc1)NC(=O)[C@@H]1CCCN1C(=O)[C@@H]1CCC(=O)N1)C(=O)N1CCC[C@H]1C(N)=O) [wheat gliadin peptide containing DQ2.5-glia-ω1 and DQ2.5-glia-ω2, reference compound] | 20 | 1 | 0 | 205 | 2 | 1 | significant SFU as a percentage of maximal peptide SFU (Patient 10 TCC-01): *** (***: >70%) |
